pIC50, pKi: −log10 of the molar value.
Key:
[1] = Cytotoxicity against CB2-expressing CHO cells assessed as cell growth inhibition at 10 uM after 72 hrs by MTS assay; type: cell-based, Cricetulus griseus; settings: chinese hamster, read-out: GI
[2] = Cytotoxicity against wild-type CHO cells assessed as cell growth inhibition at 10 uM after 72 hrs by MTS assay; type: cell-based, Cricetulus griseus; settings: chinese hamster, read-out: GI
Cannabinoid receptor 1 = Cannabinoid receptor 1 (Homo sapiens, UniProt P21554); assay: Displacement of [3H]-CP-55940 from human CB1 expressed in CHO cells after 90 mins by TopCount scintillation counting method; type: cell-based
Cannabinoid receptor 1, sequence (P21554 whole entry): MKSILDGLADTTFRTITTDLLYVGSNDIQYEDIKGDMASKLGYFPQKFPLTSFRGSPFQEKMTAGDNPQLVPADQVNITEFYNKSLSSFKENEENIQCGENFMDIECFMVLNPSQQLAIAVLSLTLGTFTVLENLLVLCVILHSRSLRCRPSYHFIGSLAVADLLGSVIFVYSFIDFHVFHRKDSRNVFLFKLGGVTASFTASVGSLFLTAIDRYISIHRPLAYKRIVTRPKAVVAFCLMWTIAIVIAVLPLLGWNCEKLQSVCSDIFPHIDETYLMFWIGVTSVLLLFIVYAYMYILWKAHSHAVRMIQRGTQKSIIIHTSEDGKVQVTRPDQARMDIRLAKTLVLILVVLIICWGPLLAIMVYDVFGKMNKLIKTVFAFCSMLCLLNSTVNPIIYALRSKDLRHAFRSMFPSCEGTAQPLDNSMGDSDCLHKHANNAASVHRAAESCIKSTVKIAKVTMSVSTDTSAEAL

Cannabinoid receptor 2 [3] = target: T1, Cannabinoid receptor 2 (Homo sapiens, UniProt P34972); assay: Displacement of [3H]-CP-55940 from human CB2 expressed in CHO cells after 90 mins by TopCount scintillation counting method; type: cell-based
T1 sequence (P34972 whole entry): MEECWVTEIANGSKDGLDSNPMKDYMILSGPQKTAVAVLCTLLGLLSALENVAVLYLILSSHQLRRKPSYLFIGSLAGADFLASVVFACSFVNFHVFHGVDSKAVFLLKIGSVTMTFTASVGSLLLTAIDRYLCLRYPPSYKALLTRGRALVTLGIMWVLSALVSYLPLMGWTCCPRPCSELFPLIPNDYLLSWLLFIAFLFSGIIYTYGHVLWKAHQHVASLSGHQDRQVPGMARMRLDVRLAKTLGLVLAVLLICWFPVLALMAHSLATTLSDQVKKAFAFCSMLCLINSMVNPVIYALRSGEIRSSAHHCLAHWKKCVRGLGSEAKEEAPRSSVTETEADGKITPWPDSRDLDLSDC

[4] = Cytotoxicity against human HT-29 cells assessed as cell growth inhibition at 10 uM after 72 hrs by MTS assay; type: cell-based; settings: read-out: GI
[5] = Intrinsic clearance in CD1 mouse liver microsomes at 1 uM up to 40 mins by UPLC-MS/MS analysis; type: ADME, microsome; settings: read-out: CLH
Homo sapiens = species: Homo sapiens; assay: Selectivity index, ratio of Ki for human CB1 to Ki for human CB2
[6] = Half life in CD1 mouse liver microsomes at 1 uM up to 40 mins by UPLC-MS/MS analysis; type: ADME, microsome
Cannabinoid receptor 2 [7] = target: T1, Cannabinoid receptor 2; assay: Neutral antagonist activity at human CB2 assessed as inhibition of WIN552122-induced suppression of cAMP formation preincubated for 15 mins followed by forskolin addition for 30 mins measured after 1 hr by HTRF assay; type: functional
Cannabinoid receptor 2 [8] = target: T1, Cannabinoid receptor 2; assay: Neutral antagonist activity at human CB2 assessed as restoration of forskolin-induced cAMP formation preincubated for 15 mins followed by forskolin addition for 30 mins measured after 1 hr by HTRF assay; type: functional
[9] = Half life in CD1 mouse liver microsomes at 200 nM up to 40 mins by UPLC-MS/MS analysis; type: ADME, microsome
[10] = Intrinsic clearance in CD1 mouse liver microsomes at 200 nM up to 40 mins by UPLC-MS/MS analysis; type: ADME, microsome; settings: read-out: CLH

In the case of `Clc1ccccc1-c1nc2c(NCC3CCNCC3)ncnc2o1`, the inhibition at 72 h, 10 µM [1] was 9%, the inhibition at 72 h, 10 µM [2] was 0% and the pKi (Cannabinoid receptor 1) was less than 6.00. The pKi (Cannabinoid receptor 2 [3]) was less than 6.00 and the inhibition at 72 h, 10 µM [4] was 41%.

With `COc1ccc(C(=O)c2c(C)n(CCN3CCOCC3)c3cc(I)ccc23)cc1` the inhibition at 72 h, 10 µM [1] was 0%, the inhibition at 72 h, 10 µM [2] was 0% and the pKi (Cannabinoid receptor 2 [3]) was 7.04. For the same compound, the inhibition at 72 h, 10 µM [4] was 0%.

`Clc1ccccc1-c1nc2c(NCC3CCCCC3)ncnc2o1` gave an inhibition at 72 h, 10 µM [1] of 10%, an inhibition at 72 h, 10 µM [2] of 0% and a pKi (Cannabinoid receptor 1) of less than 6.00. It also gave a pKi (Cannabinoid receptor 2 [3]) of less than 6.00 and an inhibition at 72 h, 10 µM [4] of 0%.

Compound `Cc1nc(N2CCN(C)CC2)c2nc(-c3ccccc3Cl)oc2n1` has an inhibition at 72 h, 10 µM [1] of 4%, a microsomal CLint at 1 µM [5] of 502 µL/min/mg and a Ratio Ki (Homo sapiens) greater than 36.3. It also gave a half-life at 1 µM [6] of 4.1 min, a pIC50 (Cannabinoid receptor 2 [7]) of 6.03 and an inhibition at 72 h, 10 µM [2] of 0%. The pKi (Cannabinoid receptor 1) was less than 6.00, the pKi (Cannabinoid receptor 2 [3]) was 7.56 and the inhibition at 72 h, 10 µM [4] was 24%. The pIC50 (Cannabinoid receptor 2 [8]) was 6.03.

Compound `CCCCNc1ncnc2oc(-c3ccccc3Cl)nc12` has an inhibition at 72 h, 10 µM [1] of 18%, an inhibition at 72 h, 10 µM [2] of 0% and a pKi (Cannabinoid receptor 1) of less than 6.00. It also gave a pKi (Cannabinoid receptor 2 [3]) of less than 6.00 and an inhibition at 72 h, 10 µM [4] of 0%.

`CN1CCN(c2ncnc3oc(-c4ccccc4)nc23)CC1` gave an inhibition at 72 h, 10 µM [1] of 0%, an inhibition at 72 h, 10 µM [2] of 0% and a pKi (Cannabinoid receptor 1) of less than 6.00. It also gave a pKi (Cannabinoid receptor 2 [3]) of less than 6.00 and an inhibition at 72 h, 10 µM [4] of 0%.

For `CN1CCN(c2ncnc3oc(-c4ccccc4C(F)(F)F)nc23)CC1`, the inhibition at 72 h, 10 µM [1] was 0%, the microsomal CLint at 1 µM [5] was 1260 µL/min/mg and the Ratio Ki (Homo sapiens) was greater than 6.4. It also gave a half-life at 1 µM [6] of 0.9 min, an inhibition at 72 h, 10 µM [2] of 3% and a pKi (Cannabinoid receptor 1) of less than 6.00. For the same compound, the pKi (Cannabinoid receptor 2 [3]) was 6.81 and the inhibition at 72 h, 10 µM [4] was 0%.

`CC(=O)N1CCN(c2ncnc3oc(-c4ccccc4C(F)(F)F)nc23)CC1` showed an inhibition at 72 h, 10 µM [1] of 1%, a microsomal CLint at 1 µM [5] of 174 µL/min/mg and a Ratio Ki (Homo sapiens) greater than 3.9. The half-life at 1 µM [6] was 12.5 min, the inhibition at 72 h, 10 µM [2] was 12% and the pKi (Cannabinoid receptor 1) was less than 6.00. For the same compound, the pKi (Cannabinoid receptor 2 [3]) was 6.60 and the inhibition at 72 h, 10 µM [4] was 12%.

Work on `CCN1CCN(c2ncnc3oc(-c4ccccc4F)nc23)CC1` yielded an inhibition at 72 h, 10 µM [1] of 8%, an inhibition at 72 h, 10 µM [2] of 10% and a pKi (Cannabinoid receptor 1) of less than 6.00. The pKi (Cannabinoid receptor 2 [3]) was less than 6.00 and the inhibition at 72 h, 10 µM [4] was 24%.

For `CN1CCN(c2ncnc3oc(-c4ccccc4F)nc23)CC1`, the inhibition at 72 h, 10 µM [1] was 7%, the inhibition at 72 h, 10 µM [2] was 8% and the pKi (Cannabinoid receptor 1) was less than 6.00. It also gave a pKi (Cannabinoid receptor 2 [3]) of less than 6.00 and an inhibition at 72 h, 10 µM [4] of 0%.

Work on `CCN1CCN(c2ncnc3oc(-c4ccccc4C(F)(F)F)nc23)CC1` yielded an inhibition at 72 h, 10 µM [1] of 5%, a microsomal CLint at 1 µM [5] of 1240 µL/min/mg and a Ratio Ki (Homo sapiens) greater than 10.4. The half-life at 1 µM [6] was 1 min, the inhibition at 72 h, 10 µM [2] was 10% and the pKi (Cannabinoid receptor 1) was less than 6.00. It also gave a pKi (Cannabinoid receptor 2 [3]) of 7.02 and an inhibition at 72 h, 10 µM [4] of 1%.

For `COCCNc1ncnc2oc(-c3ccccc3Cl)nc12`, the inhibition at 72 h, 10 µM [1] was 0%, the inhibition at 72 h, 10 µM [2] was 0% and the pKi (Cannabinoid receptor 1) was less than 6.00. It also gave a pKi (Cannabinoid receptor 2 [3]) of less than 6.00 and an inhibition at 72 h, 10 µM [4] of 0%.

Work on `Clc1ccccc1-c1nc2c(N3CCOCC3)ncnc2o1` yielded an inhibition at 72 h, 10 µM [1] of 10%, an inhibition at 72 h, 10 µM [2] of 0% and a pKi (Cannabinoid receptor 1) of less than 6.00. It also gave a pKi (Cannabinoid receptor 2 [3]) of less than 6.00 and an inhibition at 72 h, 10 µM [4] of 5%.

`CC(=O)N1CCN(c2ncnc3oc(-c4ccccc4Cl)nc23)CC1` showed an inhibition at 72 h, 10 µM [1] of 11%, a Ratio Ki (Homo sapiens) greater than 1.4 and an inhibition at 72 h, 10 µM [2] of 23%. For the same compound, the pKi (Cannabinoid receptor 1) was less than 6.00, the half-life at 0.2 µM [9] was 12.2 min and the pKi (Cannabinoid receptor 2 [3]) was 6.17. The microsomal CLint at 0.2 µM [10] was 194 µL/min/mg and the inhibition at 72 h, 10 µM [4] was 0%.

`CN1CCN(c2ncnc3oc(-c4ccccc4Cl)nc23)CC1` gave an inhibition at 72 h, 10 µM [1] of 0%, a Ratio Ki (Homo sapiens) greater than 2.8 and an inhibition at 72 h, 10 µM [2] of 0%. It also gave a pKi (Cannabinoid receptor 1) of less than 6.00, a half-life at 0.2 µM [9] of 1.3 min and a pKi (Cannabinoid receptor 2 [3]) of 6.46. The microsomal CLint at 0.2 µM [10] was 1180 µL/min/mg and the inhibition at 72 h, 10 µM [4] was 8%.

Compound `CCN1CCN(c2ncnc3oc(-c4ccccc4)nc23)CC1` has an inhibition at 72 h, 10 µM [1] of 0%, an inhibition at 72 h, 10 µM [2] of 0% and a pKi (Cannabinoid receptor 1) of less than 6.00. The pKi (Cannabinoid receptor 2 [3]) was less than 6.00 and the inhibition at 72 h, 10 µM [4] was 0%.

Compound `CCCCCNc1ncnc2oc(-c3ccccc3Cl)nc12` has an inhibition at 72 h, 10 µM [1] of 13%, an inhibition at 72 h, 10 µM [2] of 6% and a pKi (Cannabinoid receptor 1) of less than 6.00. The pKi (Cannabinoid receptor 2 [3]) was less than 6.00 and the inhibition at 72 h, 10 µM [4] was 10%.

In the case of `CCN1CCN(c2nc(C)nc3oc(-c4ccccc4Cl)nc23)CC1`, the inhibition at 72 h, 10 µM [1] was 16%, the microsomal CLint at 1 µM [5] was 263 µL/min/mg and the Ratio Ki (Homo sapiens) was 12.7. For the same compound, the half-life at 1 µM [6] was 8.1 min, the pIC50 (Cannabinoid receptor 2 [7]) was 6.92 and the inhibition at 72 h, 10 µM [2] was 0%. The pKi (Cannabinoid receptor 1) was 6.53, the pKi (Cannabinoid receptor 2 [3]) was 7.64 and the inhibition at 72 h, 10 µM [4] was 16%. The pIC50 (Cannabinoid receptor 2 [8]) was 6.92.

For `CCN1CCN(c2nc(C)nc3[nH]c(-c4ccccc4Cl)nc23)CC1`, the inhibition at 72 h, 10 µM [1] was 0%, the microsomal CLint at 1 µM [5] was 54 µL/min/mg and the half-life at 1 µM [6] was 44 min. It also gave an inhibition at 72 h, 10 µM [2] of 30% and an inhibition at 72 h, 10 µM [4] of 0%.

Work on `CCCN1CCN(c2ncnc3oc(-c4ccccc4Cl)nc23)CC1` yielded an inhibition at 72 h, 10 µM [1] of 2%, an inhibition at 72 h, 10 µM [2] of 0% and a pKi (Cannabinoid receptor 1) of less than 6.00. It also gave a pKi (Cannabinoid receptor 2 [3]) of less than 6.00 and an inhibition at 72 h, 10 µM [4] of 0%.

Compound `CCN1CCN(c2ncnc3oc(-c4ccccc4Cl)nc23)CC1` has an inhibition at 72 h, 10 µM [1] of 9%, a microsomal CLint at 1 µM [5] of 1100 µL/min/mg and a Ratio Ki (Homo sapiens) greater than 3. For the same compound, the half-life at 1 µM [6] was 1.2 min, the inhibition at 72 h, 10 µM [2] was 1% and the pKi (Cannabinoid receptor 1) was less than 6.00. It also gave a pKi (Cannabinoid receptor 2 [3]) of 6.48 and an inhibition at 72 h, 10 µM [4] of 4%.

From ChEMBL document CHEMBL4145495, “Development of novel oxazolo[5,4-d]pyrimidines as competitive CB2 neutral antagonists based on scaffold hopping” (Eur J Med Chem, 2018)
